Experiments:
[1] = no unit, species or route given; in mg/kg; cited from earlier work
[2] = in vivo

In the case of `CC(C)(O)C#N` [acetone cyanohydrin], the LD50 value [1] is given as 18.65.
For `N#CC(O)c1ccccc1` (stereo not drawn) [mandelonitrile], the “times less toxic than sodium cyanide” value [2] is given as “approximately 18” and the LD50 value [1] is given as 116.

Reference: US8778685B2 (priority 2009, dated 2014)
